ChEMBL document CHEMBL6134907, “Synthesis of 5,9- and 5,8-Diaminoalkoxy Substituted Benzophenanthridinone Analogues as Tyrosyl-DNA Phosphodiesterase 1 Inhibitors and Their Radiosensitizing Activity” (J Med Chem, 2025)
Calls of active or inactive are those of the source. The calls are words filed in the database; no cut-off is given here.

Key:
[1] = system: HCT-116; experiment: Induction of apoptosis in human HCT-116 cells assessed as induction of 4GY ionizing radiation (IR) induced cleaved PARP at 5 uM measured after 24 hrs by Western blot analysis; assay type: functional, cell-based
[2] = system: HCT-116; experiment: Synergistic cytotoxicity against human HCT116 cells assessed as combination index at 5 uM incubated for 48 hrs in presence of 2GY ionizing radiation (IR); assay type: functional
[3] = Toxicity in BALB/c mouse xenografted with human HCT-116 cells assessed as change in heart weight at 1 to 10 mg/kg, ip every day for 14 days radiated for every 2 days once; assay type: organism-based; conditions: in vivo, 336 h, dose 1-10 mg/kg, time 14 day
[4] = system: HCT-116; experiment: Effect on Ku70/80 expression in wild type human HCT-116 cells assessed as change in mRNA level at 5 to 10 uM measured after 24 hrs by qRT-PCR analysis; assay type: functional, cell-based; conditions: dose 5-10 µM
[5] = system: HCT-116; experiment: Induction of 4GY ionizing radiation (IR) induced apoptosis in human HCT-116 cells assessed as early apoptotic cells at 10 uM measured after 24 hrs by FITC Annexin V/PI apoptosis detection assay (reference value: 17.50%); assay type: functional
[6] = system: HCT-116; experiment: Induction of 4GY ionizing radiation (IR) induced apoptosis in human HCT-116 cells assessed as late apoptotic cells at 10 uM measured after 24 hrs by FITC Annexin V/PI apoptosis detection assay (reference value: 14.32%); assay type: functional
[7] = target: Tyrosyl-DNA phosphodiesterase 1 (Homo sapiens, UniProt Q9NUW8); experiment: Inhibition of recombinant TDP1 (unknown origin) assessed as substrate cleavage using 5'-Cy5-GATCTAAAAGACTT-pY-3' DNA substrate measured after 15 mins by gel-based assay
Sequence of Tyrosyl-DNA phosphodiesterase 1 (Q9NUW8 whole entry): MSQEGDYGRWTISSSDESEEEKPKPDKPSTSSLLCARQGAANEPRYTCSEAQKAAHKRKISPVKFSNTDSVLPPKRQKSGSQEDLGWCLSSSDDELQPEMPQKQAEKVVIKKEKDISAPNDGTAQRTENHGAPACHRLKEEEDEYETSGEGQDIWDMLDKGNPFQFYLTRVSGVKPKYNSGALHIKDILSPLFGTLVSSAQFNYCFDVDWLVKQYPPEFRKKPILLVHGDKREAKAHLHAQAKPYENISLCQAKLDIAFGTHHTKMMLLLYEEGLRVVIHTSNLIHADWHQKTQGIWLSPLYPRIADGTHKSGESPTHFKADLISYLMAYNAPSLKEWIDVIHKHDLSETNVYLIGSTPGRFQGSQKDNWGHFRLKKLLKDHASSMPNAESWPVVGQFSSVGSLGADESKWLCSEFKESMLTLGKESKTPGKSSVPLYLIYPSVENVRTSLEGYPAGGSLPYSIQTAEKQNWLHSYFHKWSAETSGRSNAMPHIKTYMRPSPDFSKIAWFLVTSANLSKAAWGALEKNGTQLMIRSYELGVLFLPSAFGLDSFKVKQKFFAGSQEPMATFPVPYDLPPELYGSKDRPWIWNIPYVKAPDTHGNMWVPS

## COc1cc2c(=O)n(CCN(C)C)c3c4cc5c(cc4ccc3c2cc1OCCN1CCOCC1)OCO5
[1]
  Activity: Active
[2]
  CI: <0.3
[3]
  Activity: Non-toxic
[4]
  Activity: inactive
[5]
  Activity: 19.85%
[6]
  Activity: 23.04%
[7]
  IC50: 7.8 µM
